Experimental data reported in US20230117034A1, “PYRAZOLOTRIAZINES” (Bayer Aktiengesellschaft, priority 2019, published 2023).
Where two headings read alike, the source gives them in different places.

Columns and labels:
[1] = test system: BRCA1 mRNA expression in CAL-120 cells; assay: qRT-PCR assay: BRCA1 mRNA expression in CAL-120; type: cell-based; conditions: Homo sapiens; Inhibition of BRCA1 mRNA expression in CAL-120 cells; median; read-out: RTqPCR-CAL-120, IC50, BRCA1 (median)
Method: 3. qRT-PCR Assay: BRCA, ATR, MCL1 in MDA-MB-231, CAL-120
Tissue cultured human MDA-MB-231 human breast cancer cells were plated in 500 microL per well at 200,000 cells/well in a 24 well microtiter plate. After 24 h, the cells were exposed continuously for 24 h to test substances (substances were added with Tecan HP 0300 Dispenser). RNA was prepared using Qiagen RNeasy MiniKit (#74106), RNA was quantified using a NanoDrop Equipment, and 600 nano gamms of RNA was coverted to cDNA using a SuperScript VILO kit (Thermofisher #11755050) followed by qPCR amplification. BRCA1 and ATR gene expression was measured by RT-qPCR and normalised to GAPDH housekeeping gene expression. qPCR primer sets have been purchased from Thermo Fisher Scientific/Applied Biosystems: BRCA1, #Hs 01556193; ATR, #Hs 00992123; GAPDH, #Hs 03929097.

[2] = test system: Human tumour cells (cell line panel); assay: Proliferation assay: cell line panel (crystal violet, 4 days); type: cell-based; conditions: read-out: Result Category, IC50 (mean)
From the text: Human tumour cells were originally obtained from the American Type Culture Collection (ATCC), from Cell Line Services GmbH (CLS), from the Deutsche Sammlung von Mikroorganismen und Zellkulturen (DSMZ, German Collection of Microorganisms and Cell Cultures), from the Japanese Cancer Research Resources Bank (JCRB), from Public Health England, from the European Collection of Authenticated Cell Cultures (ECACC), from Asterand Biosciences, or from the National Cancer Institute (NCI). Cultivated tumour cells were plated at the density as indicated in Table 6 in 96-well multititer plates in 200 microL of their respective growth medium supplemented 10% fetal calf serum. After 24 hours, the cells of one plate (zero-point plate) were stained with crystal violet (see below), while the medium of the other plates was supplemented with the test substances in various concentrations (0 micromol/L, as well as in the range of 0.003-3 micromol/L; the final concentration of the solvent dimethyl sulfoxide was adjusted to 0.1%) using a Tecan HP D300 Digital Dispenser. The cells were incubated for 4 days in the presence of test substances. Cell proliferation was determined by staining the cells with crystal violet: the cells were fixed by adding 20 microL/measuring point of an 11% glutaric aldehyde solution for 15 minutes at room temperature. After three washing cycles of the fixed cells with water, the plates were dried at room temperature. The cells were stained by adding 100 microL/measuring point of a 0.1% crystal violet solution (pH 3.0). After three washing cycles of the stained cells with water, the plates were dried at room temperature. The dye was dissolved by adding 100 microL/measuring point of a 10% acetic acid solution. The extinction was determined by photometry at a wavelength of 595 nm. The change of cell number, in percent, was calculated by normalization of the measured values to the extinction values of the zero-point plate (=0%) and the extinction of the untreated (0 μM) cells (=100%). The […] values (inhibitory concentration at 50% of maximal effect) were determined by means of a 4 parameter fit.

IC50 [1]: 7.06 nM
IC50 ([2]; A673, sarcoma, 5000 cells/well): ≤ 30 nM
IC50 ([2]; AU565, breast cancer, HER2 positive, 4000 cells/well): ≤ 30 nM
IC50 ([2]; BT-474, BT474, breast cancer, HER2 positive, 4000 cells/well): ≤ 30 nM
IC50 ([2]; BT-549, BT549, breast cancer, 4000 cells/well): ≤ 30 nM
IC50 ([2]; CAL-120, breast cancer, triple-negative, 4000 cells/well): ≤ 30 nM
IC50 ([2]; COV318, ovarian cancer, 4000 cells/well): ≥ 100 nM
IC50 ([2]; COV362, ovarian cancer, 4000 cells/well): ≥ 100 nM
IC50 ([2]; Calu-3, lung cancer, non-small cell, 4000 cells/well): 30 to 100 nM
IC50 ([2]; DLD-1, DLD1, colorectal cancer, 4000 cells/well): 30 to 100 nM
IC50 ([2]; DMS-79, DMS79, lung cancer, small cell, 5000 cells/well): 30 to 100 nM
IC50 ([2]; DU-145, DU145, prostate cancer, 3000 cells/well): ≥ 100 nM
IC50 ([2]; EFM-192A, EFM192A, breast cancer, HER2 positive, 4000 cells/well): 30 to 100 nM
IC50 ([2]; HCC202, breast cancer, HER2 positive, 5000 cells/well): ≤ 30 nM
IC50 ([2]; HCC366, lung cancer, non-small cell, 4000 cells/well): 30 to 100 nM
IC50 ([2]; HCC1143, breast cancer, triple-negative, 4000 cells/well): ≤ 30 nM
IC50 ([2]; HCC1419, breast cancer, HER2 positive, 4000 cells/well): ≥ 100 nM
IC50 ([2]; HCC1599, breast cancer, triple-negative, 5000 cells/well): ≥ 100 nM
IC50 ([2]; HCC1806, breast cancer, triple-negative, 4000 cells/well): ≥ 100 nM
IC50 ([2]; HCC1937, breast cancer, triple-negative, 5000 cells/well): ≥ 100 nM
IC50 ([2]; HCC1954, breast cancer, HER2 positive, 4000 cells/well): ≤ 30 nM
IC50 ([2]; HCC2157, breast cancer, triple-negative, 5000 cells/well): ≤ 30 nM
IC50 ([2]; HCT-116, HCT116, colorectal cancer, 3000 cells/well): ≥ 100 nM
IC50 ([2]; HT-29, HT29, colorectal cancer, 2000 cells/well): ≤ 30 nM
IC50 ([2]; HT-144, melanoma, 4000 cells/well): ≥ 100 nM
IC50 ([2]; HUH-6clone5, liver cancer, 4000 cells/well): ≥ 100 nM
IC50 ([2]; HUH-7, liver cancer, 4000 cells/well): ≤ 30 nM
IC50 ([2]; HeLa, cervical cancer, 3000 cells/well): 30 to 100 nM
IC50 ([2]; JHH7, JHH-7, liver cancer, 4000 cells/well): ≤ 30 nM
IC50 ([2]; JHH-4, liver cancer, 4000 cells/well): 30 to 100 nM
IC50 ([2]; JIMT-1, JIMT1, breast cancer, HER2 positive, 4000 cells/well): ≤ 30 nM
IC50 ([2]; KYSE−410, estophageal cancer, 4000 cells/well): 30 to 100 nM
IC50 ([2]; LNCap, prostate cancer, 5000 cells/well): 30 to 100 nM
IC50 ([2]; Lovo, colorectal cancer, 4000 cells/well): 30 to 100 nM
IC50 ([2]; MCF7, breast cancer, 4000 cells/well): ≥ 100 nM
IC50 ([2]; MDA-MB-231, breast cancer, triple-negative, 4000 cells/well): ≤ 30 nM
IC50 ([2]; MDA-MB-361, breast cancer, HER2 positive, 5000 cells/well): 30 to 100 nM
IC50 ([2]; MDA-MB-436, breast cancer, triple-negative, 4000 cells/well): ≤ 30 nM
IC50 ([2]; MDA-MB-468, breast cancer, triple-negative, 4000 cells/well): ≤ 30 nM
IC50 ([2]; MKN-1, MKN1, gastric cancer, 4000 cells/well): 30 to 100 nM
IC50 ([2]; NCI-H23, lung cancer, non-small cell, 3000 cells/well): 30 to 100 nM
IC50 ([2]; NCI-H69, lung cancer, small cell, 4000 cells/well): 30 to 100 nM
IC50 ([2]; NCI-H82, lung cancer, small cell, 4000 cells/well): 30 to 100 nM
IC50 ([2]; NCI-H345, lung cancer, small cell, 5000 cells/well): 30 to 100 nM
IC50 ([2]; NCI-H446, lung cancer, small cell, 4000 cells/well): 30 to 100 nM
IC50 ([2]; NCI-H460, lung cancer, non-small cell, 3000 cells/well): ≥ 100 nM
IC50 ([2]; NCI-H526, lung cancer, small cell, 4000 cells/well): 30 to 100 nM
IC50 ([2]; NCI-H1155, lung cancer, non-small cell, 4000 cells/well): 30 to 100 nM
IC50 ([2]; NCI-H1299, lung cancer, non-small cell, 4000 cells/well): 30 to 100 nM
IC50 ([2]; NCI-H1623, lung cancer, non-small cell, 5000 cells/well): 30 to 100 nM
IC50 ([2]; NCI-H1734, lung cancer, non-small cell, 5000 cells/well): ≤ 30 nM
IC50 ([2]; NCI-H1793, lung cancer, non-small cell, 5000 cells/well): 30 to 100 nM
IC50 ([2]; NCI-H1836, lung cancer, small cell, 5000 cells/well): 30 to 100 nM
IC50 ([2]; NCI-H1838, lung cancer, non-small cell, 4000 cells/well): ≤ 30 nM
IC50 ([2]; NCI-H1975, lung cancer, non-small cell, 3000 cells/well): 30 to 100 nM
IC50 ([2]; NCI-H2009, lung cancer, non-small cell, 5000 cells/well): 30 to 100 nM
IC50 ([2]; NCI-H2029, lung cancer, small cell, 5000 cells/well): ≤ 30 nM
IC50 ([2]; NCI-H2030, lung cancer, non-small cell, 4000 cells/well): ≤ 30 nM
IC50 ([2]; NCI-H2405, lung cancer, non-small cell, 4000 cells/well): ≥ 100 nM
IC50 ([2]; NCI-N87, gastric cancer, 4000 cells/well): ≤ 30 nM
IC50 ([2]; OVCAR-3, OVCAR3, ovarian cancer, 5000 cells/well): 30 to 100 nM
IC50 ([2]; OVCAR-8, OVCAR8, ovarian cancer, 4000 cells/well): 30 to 100 nM
IC50 ([2]; PC-3, prostate cancer, 3000 cells/well): 30 to 100 nM
IC50 ([2]; PLC/PRF/5, liver cancer, 4000 cells/well): ≤ 30 nM
IC50 ([2]; SK-BR-3, breast cancer, HER2 positive, 5000 cells/well): ≤ 30 nM
IC50 ([2]; SK-HEP1, SK-HEP-1, liver cancer, 4000 cells/well): ≤ 30 nM
IC50 ([2]; SK-OV-3, ovarian cancer, 4000 cells/well): ≥ 100 nM
IC50 ([2]; SNU-449, SNU449, liver cancer, 4000 cells/well): 30 to 100 nM
IC50 ([2]; SUM149, breast cancer, triple-negative, 4000 cells/well): ≤ 30 nM
IC50 ([2]; SW480, colorectal cancer, 3000 cells/well): ≤ 30 nM
IC50 ([2]; SW-620, SW620, colorectal cancer, 3000 cells/well): ≤ 30 nM
IC50 ([2]; U2OS, U2-OS, sarcoma, 5000 cells/well): ≤ 30 nM
IC50 ([2]; U-251, U251MG, glioblastoma, 3000 cells/well): 30 to 100 nM
SMILES: Brc1cnn2c(NCc3nc4ccccc4[nH]3)nc(N3CCOCC3)nc12 [Example 4, N-[(1H-benzimidazol-2-yl)methyl]-8-bromo-2-(morpholin-4-yl)pyrazolo[1,5-a][1,3,5]triazin-4-amine]
IC50 ([2]; HCC70, breast cancer, triple-negative, 5000 cells/well): 30 to 100 nM
